This assay deals with glaucoma-associated-EV-complex in POAG patient's aqueous humor. As to the kind of experiment: Treating POAG aqueous humor samples with bimatoprost, EDC fixation, negative staining and TEM imaging. Also noted: species or system human. The text has this:
Methods for treating POAG aqueous humor samples with bimatoprost, and fixation of fluid with EDC, negative staining and TEM imaging. We sought to determine the effect of bimatoprost on EVs in aqueous humor of patients with glaucoma. To do this, we diluted the POAG aqueous humor sample with tris buffered saline (1:10 dilution) and added 1:1 volume of diluted POAG sample with either tris buffered saline (control) or bimatoprost. Lumigan was obtained directly from the dispensing bottle and was NOT diluted. 10 ul of POAG sample was mixed with 10 ul of TBS or 10 ul POAG sample was mixed with 10 ul of undiluted Lumigan. The tubes were then incubated in a thermocycler PCR machine and were allowed to sit for 72 hours at 37° C. The samples were then diluted (1:10). Next, we fixed with EDC on an electron microscopy grid using the following protocol. For 1 mls of EDC/ETT solution in 0.1 M 1-Methylimidazole buffer (pH 8.0). • 1. EDC-HCl powder should be stored at −20° C. under argon. To avoid condensation of humidity, only open bottles after they reached room temperature, i.e. take the bottle out of freezer 1 h before weighing out sample. • 2. EDC/5-ETT solution should be made at most 1 h prior to use. • 3. Pipette 5.76 ml of 0.1 M 1-Methylimidazole buffer (pH 8.0) into a 15 ml tube, vortex vigorously. • 4. Carefully spoon out the 0.078 g of ETT found in the “G” group, onto a piece of paper. Carefully pour the 0.078 g into the tube. • 5. Using the pH paper and pipet to check to be pH 8.0 • 6. Use a weighing paper to measure out 0.12 g of EDC. Carefully pour into the tube. Vortex vigorously. • 7. Discard unused solution. • 8. Using the pH paper and pipet to check to be pH 8.0 Poly L-lysine grids, EDC fixation, Glut-fixation, UA stain. • 1. Use formvar coated grids. • 2. Place them facing formvar side down to poly-lysine drops and let them sit for 5-10 min. • 3. Then you will withdraw the Poly-L-lysine • 4. Fasten down a piece of parchment paper to a 100 mm dish with tape or weight. Place grid down on parchment paper. Mix EDC solution with EVs • 1. Mix 2.5 ul of (Cold) EVs with 5 ul of (Cold) EDC solution in 1.5 ml siliconized tube. • 2. In the cold room, apply 5 μl sample (Aqueous humor) to the grid and wait 15 minutes to dry and for the EVs to settle to the bottom of the grid. • 3. Place in a humidified chamber and incubate at […] for at least 3 hours. Secondary Fixation with Glut • 1. Remove EDC-EV solution from the sample using a pipette. • 2. Fix with Glut, add 2-5 ul of glut fix and wait for 5 min • 3. Remove Glut with Pipet or lens paper Rinse Glut and EDC • 1. Apply water bubble to grid for 5 min • 2. Remove water bubble with pipette • 3. Add 5 ul of uranyl acetate onto grid (1 drop, blotting after the drop) • 4. Let grid dry, and place in grid box • 5. Take off stain with pipette Samples were then imaged with TEM. Treating large EV complexes with Bimatoprost breaks up the EV-complex, when compared to controls. To determine if glaucoma-associated-EV-aggregates visualized using the EDC fixation method were indeed a potential mediator of POAG, we hypothesized that treating it with a known glaucoma medication would change the morphology of the glaucoma-associated-EV-aggregates. Therefore, we opted to use Bimatoprost (lumigan), which is a ocular hypotensive agent that lowers IOP in normal, ocular hypertensive, and glaucomatous eyes. […]

From patent US11752175B2, “Compositions and methods for glaucoma” (AUFBAU MEDICAL INNOVATIONS LIMITED, priority 2018, dated 2023) come the findings set out here.

For the compound `CCNC(=O)CCC/C=C\C[C@@H]1[C@@H](/C=C/[C@@H](O)CCc2ccccc2)[C@H](O)C[C@@H]1O` [bimatoprost], the “evidence of large extracellular matrix or glaucoma-associated-EV-aggregates in TEM photographs” value (POAG aqueous humor samples treated with bimatoprost (FIG. 11 c-d)) is given as “no evidence of large extracellular matrix nor glaucoma-associated-EV-aggregates”. Besides, the “number of glaucoma-associated-EV-complex, compared to POAG sample with placebo treatment” value (POAG patient's aqueous humor, first subject (FIG. 11), undiluted Lumigan 1:1 with 1:10 diluted sample, 37° C. for 72 hours, TEM) was “substantial reduction”. The “size of POAG-associated EV complexes, compared to untreated glaucoma samples” value (aqueous humor of a patient with POAG (FIG. 11), TEM) is on record as “reduces the size”. Besides, where the note is “aqueous humor of second subject with glaucoma (FIG. 13), TEM”, the “size of POAG-associated EV complexes, compared to control-treated glaucoma samples” value is “reduces the size”. Under “second human subject with glaucoma (FIG. 12-13), 37° C. for 72 hours, TEM”, the “number of glaucoma-associated-EV-complexes, compared to placebo (buffered saline)” value was “substantial reduction”.
